The values below come from ChEMBL document CHEMBL5143734, “Seco-Lupane Triterpene Derivatives Induce Ferroptosis through GPX4/ACSL4 Axis and Target Cyclin D1 to Block the Cell Cycle” (J Med Chem, 2022).

pIC50: −log10 of the molar value.

Common to all, as to type: functional, cell-based
One test relates to PANC-1. Put plainly: Cytotoxicity against human PANC-1 cells assessed as reduction in cell viability by CCK-8 assay. In general terms: Tetrazolium assays rely on reduction of a dye to a coloured formazan, in cell work by metabolically active cells.
The subject of a further test is HepG2. The experiment in a line: Cytotoxicity against human HepG2 cells assessed as reduction in cell viability by CCK-8 assay.
For the next test, the system named is PC-3M. The experiment in a line: Cytotoxicity against human PC-3M cells assessed as reduction in cell viability by CCK-8 assay.
A further test relates to MCF7. Put plainly: Cytotoxicity against human MCF7 cells assessed as reduction in cell viability by CCK-8 assay.
A further test deals with A549. The experiment in a line: Cytotoxicity against human A549 cells assessed as reduction in cell viability by CCK-8 assay.

As to `C=C(C)[C@@H]1CC[C@]2(C(=O)OCCCn3cc(CCN)c4ccccc43)CC[C@]3(C)[C@H](C[C@H]4OC(=O)C[C@@H](O)[C@]5(C)[C@@H]4[C@@]3(C)CC[C@H]5C(=C)C)[C@@H]12`, the negative-log IC50 (pIC50) in the test on PANC-1 was 5.02; in the test on HepG2, 5.75; with PC-3M it was 5.20; in the test with MCF7, 4.93; with A549, 5.14.
In the case of `C=C(C)[C@@H]1CC[C@]2(C(=O)OCCCCn3cnc(C)c3)CC[C@]3(C)[C@H](C[C@H]4OC(=O)C[C@@H](O)[C@]5(C)[C@@H]4[C@@]3(C)CC[C@H]5C(=C)C)[C@@H]12`, the pIC50 in the test on PANC-1 is 4.53; in the test on HepG2, 4.80; in the test on PC-3M, 4.81; in the test with MCF7, 4.34; in the test on A549 it was 4.70.
Regarding `C=C(C)[C@@H]1CC[C@]2(C(=O)OCCCCn3cnc(C)c3)CC[C@]3(C)[C@H](C[C@@H](O)[C@@H]4[C@@]5(C)C(CC(=O)OC)OC(C)(C)C5CC[C@]43C)[C@@H]12` (stereo not given in full), the pIC50 was 4.41 in the test with PANC-1; 4.70 in the test on HepG2; 4.60 with PC-3M; 4.18 in the test with MCF7; 4.45 in the test on A549.
Take `C=C(C)[C@@H]1CC[C@]2(C(=O)OCCCCCn3ccnc3C)CC[C@]3(C)[C@H](C[C@H]4OC(=O)C[C@@H](O)[C@]5(C)[C@@H]4[C@@]3(C)CC[C@H]5C(=C)C)[C@@H]12`: the pIC50 with PANC-1 is 4.85; in the test with HepG2 it was 5.05; in the test on PC-3M, 4.91; in the test on MCF7, 4.34; in the test on A549, 4.80.
On to `C=C(C)[C@@H]1CC[C@]2(C(=O)OCCCCCBr)CC[C@]3(C)[C@H](C[C@H]4OC(=O)C[C@@H](O)[C@]5(C)[C@@H]4[C@@]3(C)CC[C@H]5C(=C)C)[C@@H]12`, for which the negative-log IC50 (pIC50) in the test with PANC-1 was 4.37; in the test on HepG2, 4.84; in the test with PC-3M, 4.84; in the test on MCF7, 4.25; in the test on A549, 4.70.
`C=C(C)[C@@H]1CC[C@]2(C(=O)OCCCCCCCCCCn3cncn3)CC[C@]3(C)[C@H](C[C@@H](O)[C@@H]4[C@@]5(C)C(CC(=O)OC)OC(C)(C)C5CC[C@]43C)[C@@H]12` (stereo not given in full): the negative logarithm of the IC50 (pIC50) was 3.98 in the test with PANC-1; 4.44 in the test on HepG2; 4.63 in the test on PC-3M; 4.15 in the test on MCF7; 4.11 in the test with A549.
In the case of `C=C(C)[C@@H]1CC[C@]2(C(=O)OCCCCn3ccnc3C)CC[C@]3(C)[C@H](C[C@H]4OC(=O)C[C@@H](O)[C@]5(C)[C@@H]4[C@@]3(C)CC[C@H]5C(=C)C)[C@@H]12`, the pIC50 in the test with PANC-1 is 4.25; in the test with HepG2 it was 4.56; in the test on PC-3M, 4.52; with MCF7 it was 4.11; in the test with A549, 4.32.
For `C=C(C)[C@@H]1CC[C@]2(C(=O)OCCCCn3ccnc3)CC[C@]3(C)[C@H](C[C@H]4OC(=O)C[C@@H](O)[C@]5(C)[C@@H]4[C@@]3(C)CC[C@H]5C(=C)C)[C@@H]12`, the pIC50 in the test with PANC-1 was 4.30; in the test with HepG2, 4.68; in the test on PC-3M, 4.55; with MCF7, 4.07; in the test with A549, 4.48.
With `C=C(C)[C@@H]1CC[C@]2(C(=O)OCCCCBr)CC[C@]3(C)[C@H](C[C@@H](O)[C@@H]4[C@@]5(C)C(CC(=O)OC)OC(C)(C)C5CC[C@]43C)[C@@H]12` (stereo not given in full), the pIC50 is 4.14 in the test with PANC-1; 4.56 with HepG2; 4.27 in the test on PC-3M; 4.09 with MCF7; 4.34 in the test with A549.
`C=C(C)[C@@H]1CC[C@]2(C(=O)OCCCCCCCCCCn3ccnc3CC)CC[C@]3(C)[C@H](C[C@@H](O)[C@@H]4[C@@]5(C)C(CC(=O)OC)OC(C)(C)C5CC[C@]43C)[C@@H]12` (stereo not given in full): the pIC50 in the test with PANC-1 is 4.97; in the test on HepG2 it was 5.16; in the test with PC-3M, 4.94; with MCF7, 4.73; in the test on A549, 4.73.
As to `C=C(C)[C@@H]1CC[C@]2(C(=O)O)CC[C@]3(C)[C@H](C[C@@H](O)[C@@H]4[C@@]5(C)C(CC(=O)OC)OC(C)(C)C5CC[C@]43C)[C@@H]12` (stereo not given in full), the pIC50 is less than 3.70 in the test on PANC-1; less than 3.70 in the test on HepG2; 3.99 with PC-3M; less than 3.70 in the test on MCF7; less than 3.70 in the test with A549.

As usually defined, the pIC50 is the IC50 on a negative log10 scale, so that one unit is a factor of ten.
